Where “and” joins values, the source holds several entries; their conditions need not be identical. Identical values can stand only once. Toxic doses and inconclusive results are not listed. No stated cut-off is given here; in the data, active means T/C of 150% or more; inactive means T/C below 125%.
Test system: L1210 leukemia ip in BDF1 mice, survival T/C
Experiment: NCI In Vivo Anticancer Drug Screen. Data for tumor model L1210 Leukemia (intraperitoneal) in B6D2F1 (BDF1) mice
Conditions: endpoint: mean survival time, higher = longer survival
Summary of the method: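 Value reflects the ratio of survival in compound-treated mice to survival in vehicle-treated controls, with both groups carrying the same transplanted tumor.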

[1] = dose: 100.0 mg/kg/injection, schedule: Q01DX001 (ip), vehicle: Klucel (hydroxypropylcellulose) (HPC)
[2] = dose: 100.0 mg/kg/injection, schedule: Q04DX003 (ip), vehicle: Klucel (hydroxypropylcellulose) (HPC)
[3] = dose: 200.0 mg/kg/injection, schedule: Q01DX001 (ip), vehicle: Klucel (hydroxypropylcellulose) (HPC)
[4] = dose: 200.0 mg/kg/injection, schedule: Q04DX003 (ip), vehicle: Klucel (hydroxypropylcellulose) (HPC)
[5] = dose: 400.0 mg/kg/injection, schedule: Q01DX001 (ip), vehicle: Klucel (hydroxypropylcellulose) (HPC)
[6] = dose: 400.0 mg/kg/injection, schedule: Q04DX003 (ip), vehicle: Klucel (hydroxypropylcellulose) (HPC)
[7] = dose: 100.0 mg/kg/injection, schedule: Q01DX009 (ip), vehicle: Klucel (hydroxypropylcellulose) (HPC)
[8] = dose: 200.0 mg/kg/injection, schedule: Q01DX009 (ip), vehicle: Klucel (hydroxypropylcellulose) (HPC)
[9] = dose: 400.0 mg/kg/injection, schedule: Q01DX009 (ip), vehicle: Klucel (hydroxypropylcellulose) (HPC)
[10] = dose: 100.0 mg/kg/injection, schedule: Q04DX002 (ip), vehicle: Klucel (hydroxypropylcellulose) (HPC)
[11] = dose: 200.0 mg/kg/injection, schedule: Q04DX002 (ip), vehicle: Klucel (hydroxypropylcellulose) (HPC)
[12] = dose: 400.0 mg/kg/injection, schedule: Q04DX002 (ip), vehicle: Klucel (hydroxypropylcellulose) (HPC)
[13] = dose: 50.0 mg/kg/injection, schedule: Q04DX003 (ip), vehicle: Klucel (hydroxypropylcellulose) (HPC)
[14] = dose: 100.0 mg/kg/injection, schedule: Q01DX001 (ip), vehicle: carboxymethylcellulose (CMC)
[15] = dose: 200.0 mg/kg/injection, schedule: Q01DX001 (ip), vehicle: carboxymethylcellulose (CMC)
[16] = dose: 100.0 mg/kg/injection, schedule: Q04DX002 (ip), vehicle: saline with Tween-80
[17] = dose: 200.0 mg/kg/injection, schedule: Q04DX002 (ip), vehicle: saline with Tween-80

Measured: T/C

Cc1cccc(Nc2cc(=S)nc(N)[nH]2)c1
inactive: dose: 100.0 mg/kg/injection, schedule: Q01DX Z (ip), vehicle: methylcellulose (MC) 98 % of control | dose: 200.0 mg/kg/injection, schedule: Q01DX Z (ip), vehicle: methylcellulose (MC) 106 % of control

N#Cc1c(F)c(F)c(Oc2c(F)c(F)c(Oc3c(F)c(F)c(C#N)c(F)c3F)c(F)c2F)c(F)c1F
inactive: [1] 97 % of control | [2] 94 % of control | [3] 97 % of control | [4] 94 % of control | [5] 89 % of control | [6] 92 % of control

CCOc1ccc(NC(=O)Nc2cccc(C(F)(F)F)c2)cc1
inactive: [7] 91 % of control | [8] 96 % of control | [9] 93 % of control

COc1cc(/C=N/NC(=O)c2ccccc2Cl)ccc1O
inactive: dose: 12.5 mg/kg/injection, schedule: Q01DX009 (ip), vehicle: saline with Tween-80 91 % of control | dose: 25.0 mg/kg/injection, schedule: Q01DX009 (ip), vehicle: saline with Tween-80 88 % of control | dose: 50.0 mg/kg/injection, schedule: Q01DX009 (ip), vehicle: saline with Tween-80 95 % of control and 97 % of control

O=P(OCCCl)(OCCCl)OCCCl
inactive: dose: 100.0 mg/kg/injection, schedule: Q04DX003 (ip), vehicle: saline 102 % of control | dose: 200.0 mg/kg/injection, schedule: Q04DX003 (ip), vehicle: saline 102 % of control | dose: 400.0 mg/kg/injection, schedule: Q04DX003 (ip), vehicle: saline 103 % of control

CCCCCCCCCCCCN=c1nc(N)ccn1C1OC(CO)C(O)C1O (configuration not stated)
inactive: dose: 12.5 mg/kg/injection, schedule: Q01DX005 (ip), vehicle: saline 110 % of control | dose: 25.0 mg/kg/injection, schedule: Q01DX005 (ip), vehicle: saline 116 % of control

CN(C)CCC(=O)c1ccc2ccccc2c1
inactive: dose: 9.38 mg/kg/injection, schedule: Q01DX001 (ip), vehicle: saline 100 % of control | dose: 18.75 mg/kg/injection, schedule: Q01DX001 (ip), vehicle: saline 101 % of control | dose: 37.5 mg/kg/injection, schedule: Q01DX001 (ip), vehicle: saline 105 % of control

CC1(c2cccc3ccccc23)OCC2(CCC2)CO1
inactive: [1] 102 % of control | [3] 98 % of control | [5] 100 % of control

O=C(Nc1ccc(Cl)cc1)C(=O)Nc1ccc(Cl)cc1
inactive: dose: 100.0 mg/kg/injection, schedule: Q04DX002 (ip), vehicle: gum acacia 107 % of control | dose: 200.0 mg/kg/injection, schedule: Q04DX002 (ip), vehicle: gum acacia 89 % of control | dose: 400.0 mg/kg/injection, schedule: Q04DX002 (ip), vehicle: gum acacia 93 % of control

CCc1cc2oc(C)c(C)c2c(N=Nc2ccc([N+](=O)[O-])cc2)c1O
inactive: [10] 102 % of control | [11] 96 % of control | [12] 99 % of control

CC1(C)N=C(N)N=C(N)N1c1cc(Cl)c(Cl)cc1Cl
inactive: dose: 6.0 mg/kg/injection, schedule: Q01DX009 (ip), vehicle: Klucel (hydroxypropylcellulose) (HPC) 105 % of control | dose: 12.0 mg/kg/injection, schedule: Q01DX009 (ip), vehicle: Klucel (hydroxypropylcellulose) (HPC) 103 % of control | dose: 12.0 mg/kg/injection, schedule: Q04DX003 (ip), vehicle: Klucel (hydroxypropylcellulose) (HPC) 95 % of control | dose: 25.0 mg/kg/injection, schedule: Q01DX009 (ip), vehicle: Klucel (hydroxypropylcellulose) (HPC) 96 % of control and 102 % of control | dose: 25.0 mg/kg/injection, schedule: Q04DX003 (ip), vehicle: Klucel (hydroxypropylcellulose) (HPC) 101 % of control | dose: 50.0 mg/kg/injection, schedule: Q01DX009 (ip), vehicle: Klucel (hydroxypropylcellulose) (HPC) 108 % of control | [13] 102 % of control

c1ccc(C2=C(c3ccccc3)CSSC2)cc1
inactive: [13] 100 % of control | [2] 100 % of control | [4] 100 % of control

CN(C)c1cc(Br)c(C=O)cc1[N+](=O)[O-]
inactive: [7] 94 % of control | [2] 102 % of control | [8] 103 % of control | [4] 93 % of control | [9] 92 % of control | [6] 98 % of control

Cc1cccc(/C=N/N(C)C(N)=S)n1
inactive: [14] 102 % of control | [15] 106 % of control

ClC1(Cl)C2(c3ccccc3)OC(c3ccccc3)(c3ccccc32)C1(Cl)Cl
inactive: [10] 97 % of control | [11] 97 % of control | [12] 102 % of control

O=C(Cl)Oc1cccc2ccccc12
inactive: dose: 50.0 mg/kg/injection, schedule: Q01DX001 (ip), vehicle: saline 108 % of control | dose: 100.0 mg/kg/injection, schedule: Q01DX001 (ip), vehicle: saline 113 % of control | dose: 200.0 mg/kg/injection, schedule: Q01DX001 (ip), vehicle: saline 104 % of control | dose: 400.0 mg/kg/injection, schedule: Q01DX001 (ip), vehicle: saline 98 % of control

C/C=C/C(C1=C(O)c2ccccc2C(=O)C1=O)C1=C(O)c2ccccc2C(=O)C1=O
inactive: dose: 75.0 mg/kg/injection, schedule: Q01DX001 (ip), vehicle: carboxymethylcellulose (CMC) 100 % of control | dose: 150.0 mg/kg/injection, schedule: Q01DX001 (ip), vehicle: carboxymethylcellulose (CMC) 118 % of control | dose: 300.0 mg/kg/injection, schedule: Q01DX001 (ip), vehicle: carboxymethylcellulose (CMC) 108 % of control

CC(=O)N(Cl)c1ccc(Cl)cc1Cl
inactive: [10] 100 % of control | [11] 98 % of control | [12] 91 % of control

CSc1ccc(NC(=O)c2ccc(Cl)cc2Cl)cc1
inactive: dose: 100.0 mg/kg/injection, schedule: Q01DX001 (ip), vehicle: saline with Tween-80 89 % of control | dose: 100.0 mg/kg/injection, schedule: Q01DX009 (ip), vehicle: saline + alcohol 95 % of control and 108 % of control | [16] 96 % of control and 108 % of control | dose: 200.0 mg/kg/injection, schedule: Q01DX001 (ip), vehicle: saline with Tween-80 89 % of control | dose: 200.0 mg/kg/injection, schedule: Q01DX009 (ip), vehicle: saline + alcohol 97 % of control and 106 % of control | [17] 93 % of control and 97 % of control | dose: 400.0 mg/kg/injection, schedule: Q01DX001 (ip), vehicle: saline with Tween-80 90 % of control | dose: 400.0 mg/kg/injection, schedule: Q04DX002 (ip), vehicle: saline with Tween-80 93 % of control and 97 % of control

Cc1ccc(N)cc1S(=O)(=O)F
inactive: dose: 75.0 mg/kg/injection, schedule: Q01DX001 (ip), vehicle: saline 107 % of control | dose: 150.0 mg/kg/injection, schedule: Q01DX001 (ip), vehicle: saline 98 % of control | dose: 300.0 mg/kg/injection, schedule: Q01DX001 (ip), vehicle: saline 103 % of control

Nc1ccccc1S(=O)(=O)F
inactive: dose: 75.0 mg/kg/injection, schedule: Q04DX003 (ip), vehicle: Klucel (hydroxypropylcellulose) (HPC) 100 % of control | [14] 98 % of control | dose: 150.0 mg/kg/injection, schedule: Q04DX003 (ip), vehicle: Klucel (hydroxypropylcellulose) (HPC) 94 % of control | [15] 98 % of control | dose: 300.0 mg/kg/injection, schedule: Q04DX003 (ip), vehicle: Klucel (hydroxypropylcellulose) (HPC) 96 % of control | dose: 400.0 mg/kg/injection, schedule: Q01DX001 (ip), vehicle: carboxymethylcellulose (CMC) 101 % of control

Nc1ccc2cn[nH]c2c1
inactive: dose: 50.0 mg/kg/injection, schedule: Q04DX002 (ip), vehicle: saline with Tween-80 100 % of control | dose: 100.0 mg/kg/injection, schedule: Q01DX009 (ip), vehicle: water 104 % of control | [16] 100 % of control | dose: 100.0 mg/kg/injection, schedule: Q04DX003 (ip), vehicle: water 96 % of control | dose: 200.0 mg/kg/injection, schedule: Q01DX009 (ip), vehicle: water 111 % of control | [17] 106 % of control | dose: 200.0 mg/kg/injection, schedule: Q04DX003 (ip), vehicle: water 94 % of control | dose: 400.0 mg/kg/injection, schedule: Q04DX003 (ip), vehicle: water 100 % of control
